Laboratory results as given in PMC9005681, “Use of AD Informer Set compounds to explore validity of novel targets in Alzheimer's disease pathology” (Alzheimer's & Dementia : Translational Research & Clinical …, 2022).
“And” between values parts separate entries of the source, which are not always exact repeats. Equal values may be shown once.

What was measured:
Experiment in all cases: PDSP GPCR panel primary binding assays at 10 μM
Details in all cases: primary assay
[1] = biological target: T1, cloned human or rodent CNS receptors, channels, and transporters (PDSP panel) (Homo sapiens, UniProt P35368)
T1 construct: expressed in transfected cells
T1 sequence (P35368 1-520): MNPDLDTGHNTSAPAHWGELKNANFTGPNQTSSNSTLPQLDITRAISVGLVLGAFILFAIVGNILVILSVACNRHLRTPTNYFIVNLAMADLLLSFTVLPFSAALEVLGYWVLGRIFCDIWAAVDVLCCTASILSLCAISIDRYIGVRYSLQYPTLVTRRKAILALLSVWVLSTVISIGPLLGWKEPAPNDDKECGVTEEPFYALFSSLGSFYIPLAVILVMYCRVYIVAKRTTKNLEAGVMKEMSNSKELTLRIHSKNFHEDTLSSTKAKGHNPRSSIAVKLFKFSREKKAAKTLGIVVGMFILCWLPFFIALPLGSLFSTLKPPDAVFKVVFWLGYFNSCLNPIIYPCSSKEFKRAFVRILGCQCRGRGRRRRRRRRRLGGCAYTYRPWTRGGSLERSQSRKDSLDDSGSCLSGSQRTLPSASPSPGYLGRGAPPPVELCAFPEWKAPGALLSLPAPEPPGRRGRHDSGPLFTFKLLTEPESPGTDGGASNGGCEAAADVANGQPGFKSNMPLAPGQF
Procedure, shortened: (§1)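 Each compound is first screened once at 10 μM, in quadruplicate, for radioligand displacement. Where mean displacement passes 50%, an 11-point dose-response in triplicate follows at that target, except at H3, PBR and GABAA.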

[2] = biological target: T2, cloned human or rodent CNS receptors, channels, and transporters (PDSP panel) (Homo sapiens, UniProt P08173)
T2 construct: expressed in transfected cells
T2 sequence (P08173 1-479): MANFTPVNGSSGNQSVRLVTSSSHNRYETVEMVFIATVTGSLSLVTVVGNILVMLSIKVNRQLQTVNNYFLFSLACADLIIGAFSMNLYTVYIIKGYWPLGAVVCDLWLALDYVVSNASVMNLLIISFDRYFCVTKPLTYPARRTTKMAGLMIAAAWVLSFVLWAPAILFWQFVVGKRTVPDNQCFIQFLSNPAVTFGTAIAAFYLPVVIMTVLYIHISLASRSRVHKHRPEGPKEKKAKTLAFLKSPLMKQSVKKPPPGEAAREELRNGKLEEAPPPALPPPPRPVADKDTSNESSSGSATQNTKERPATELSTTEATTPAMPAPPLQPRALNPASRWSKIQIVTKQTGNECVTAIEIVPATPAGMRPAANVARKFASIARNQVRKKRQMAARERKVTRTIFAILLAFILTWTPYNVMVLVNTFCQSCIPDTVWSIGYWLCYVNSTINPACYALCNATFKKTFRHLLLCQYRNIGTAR
Procedure, shortened: as §1

[3] = biological target: T3, cloned human or rodent CNS receptors, channels, and transporters (PDSP panel) (Homo sapiens, UniProt P28222)
T3 construct: expressed in transfected cells
Procedure, shortened: as §1

[4] = biological target: T4, cloned human or rodent CNS receptors, channels, and transporters (PDSP panel) (Homo sapiens, UniProt P21728)
T4 construct: expressed in transfected cells
Procedure, shortened: as §1

[5] = biological target: T5, cloned human or rodent CNS receptors, channels, and transporters (PDSP panel) (Homo sapiens, UniProt P14416)
T5 construct: expressed in transfected cells
Procedure, shortened: as §1

[6] = biological target: T6, cloned human or rodent CNS receptors, channels, and transporters (PDSP panel) (Rattus norvegicus, UniProt P16257)
T6 construct: expressed in transfected cells
Procedure, shortened: as §1

[7] = biological target: T7, cloned human or rodent CNS receptors, channels, and transporters (PDSP panel) (Homo sapiens, UniProt P28335)
T7 construct: expressed in transfected cells
T7 sequence (P28335 33-458): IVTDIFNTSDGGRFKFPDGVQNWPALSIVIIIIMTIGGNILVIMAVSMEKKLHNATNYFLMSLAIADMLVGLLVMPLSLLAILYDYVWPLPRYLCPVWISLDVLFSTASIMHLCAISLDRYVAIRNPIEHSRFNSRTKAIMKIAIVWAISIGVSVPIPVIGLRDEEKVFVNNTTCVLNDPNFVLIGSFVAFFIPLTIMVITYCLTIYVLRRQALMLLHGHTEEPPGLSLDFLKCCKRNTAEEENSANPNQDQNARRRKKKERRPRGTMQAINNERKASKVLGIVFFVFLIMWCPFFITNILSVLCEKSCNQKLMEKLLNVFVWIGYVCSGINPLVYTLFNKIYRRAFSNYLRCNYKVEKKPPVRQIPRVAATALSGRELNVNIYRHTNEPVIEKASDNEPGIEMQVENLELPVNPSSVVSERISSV
Procedure, shortened: as §1

[8] = biological target: T8, cloned human or rodent CNS receptors, channels, and transporters (PDSP panel) (Homo sapiens, UniProt P28221)
T8 construct: expressed in transfected cells
Procedure, shortened: as §1

[9] = biological target: T9, cloned human or rodent CNS receptors, channels, and transporters (PDSP panel) (Homo sapiens, UniProt P50406)
T9 construct: expressed in transfected cells
Procedure, shortened: as §1

[10] = Receptor Alpha1B, 10 μM, mean of Inhibition 1-4
[11] = Receptor M4, 10 μM, mean of Inhibition 1-4
[12] = Receptor 5-HT1B, 10 μM, mean of Inhibition 1-4
[13] = Receptor D1, 10 μM, mean of Inhibition 1-4
[14] = Receptor D2, 10 μM, mean of Inhibition 1-4
[15] = Receptor 5-HT2C, 10 μM, mean of Inhibition 1-4
[16] = Receptor 5-HT1D, 10 μM, mean of Inhibition 1-4
[17] = Receptor 5-HT6, 10 μM, mean of Inhibition 1-4

T4 sequence (P21728 whole entry): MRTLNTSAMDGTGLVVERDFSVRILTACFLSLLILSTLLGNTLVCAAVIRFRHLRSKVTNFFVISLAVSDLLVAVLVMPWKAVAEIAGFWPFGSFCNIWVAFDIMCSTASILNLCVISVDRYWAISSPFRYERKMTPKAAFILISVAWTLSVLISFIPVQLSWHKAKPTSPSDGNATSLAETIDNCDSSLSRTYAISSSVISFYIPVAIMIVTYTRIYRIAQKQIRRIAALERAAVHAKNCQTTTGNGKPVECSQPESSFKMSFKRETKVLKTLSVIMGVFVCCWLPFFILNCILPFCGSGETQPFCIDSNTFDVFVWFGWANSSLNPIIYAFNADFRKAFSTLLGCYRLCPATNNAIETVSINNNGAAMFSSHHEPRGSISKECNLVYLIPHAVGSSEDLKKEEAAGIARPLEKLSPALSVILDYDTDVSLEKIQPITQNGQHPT
T9 sequence (P50406 whole entry): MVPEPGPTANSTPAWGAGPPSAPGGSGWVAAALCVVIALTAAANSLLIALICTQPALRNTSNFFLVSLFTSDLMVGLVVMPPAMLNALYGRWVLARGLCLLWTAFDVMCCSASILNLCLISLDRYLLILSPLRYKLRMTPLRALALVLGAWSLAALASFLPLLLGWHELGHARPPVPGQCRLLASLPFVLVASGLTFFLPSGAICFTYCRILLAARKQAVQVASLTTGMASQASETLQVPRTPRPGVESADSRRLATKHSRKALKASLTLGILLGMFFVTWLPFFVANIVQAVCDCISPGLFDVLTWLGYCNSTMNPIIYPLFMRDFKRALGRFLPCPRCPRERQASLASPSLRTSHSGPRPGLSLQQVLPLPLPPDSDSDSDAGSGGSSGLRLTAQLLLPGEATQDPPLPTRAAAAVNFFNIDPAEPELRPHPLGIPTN
T5 sequence (P14416 whole entry): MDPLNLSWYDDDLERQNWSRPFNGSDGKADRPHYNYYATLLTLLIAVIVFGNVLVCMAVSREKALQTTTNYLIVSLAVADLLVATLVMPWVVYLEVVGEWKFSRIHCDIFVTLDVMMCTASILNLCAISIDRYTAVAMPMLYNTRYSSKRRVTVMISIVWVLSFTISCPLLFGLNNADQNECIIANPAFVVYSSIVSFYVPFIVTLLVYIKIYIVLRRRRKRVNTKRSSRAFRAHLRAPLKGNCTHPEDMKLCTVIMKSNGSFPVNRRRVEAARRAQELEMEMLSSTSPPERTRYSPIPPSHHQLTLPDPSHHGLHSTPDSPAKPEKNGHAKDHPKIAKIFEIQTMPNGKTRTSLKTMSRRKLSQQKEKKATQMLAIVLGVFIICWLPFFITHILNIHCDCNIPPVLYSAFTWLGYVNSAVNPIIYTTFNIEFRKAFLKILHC
T3 sequence (P28222 whole entry): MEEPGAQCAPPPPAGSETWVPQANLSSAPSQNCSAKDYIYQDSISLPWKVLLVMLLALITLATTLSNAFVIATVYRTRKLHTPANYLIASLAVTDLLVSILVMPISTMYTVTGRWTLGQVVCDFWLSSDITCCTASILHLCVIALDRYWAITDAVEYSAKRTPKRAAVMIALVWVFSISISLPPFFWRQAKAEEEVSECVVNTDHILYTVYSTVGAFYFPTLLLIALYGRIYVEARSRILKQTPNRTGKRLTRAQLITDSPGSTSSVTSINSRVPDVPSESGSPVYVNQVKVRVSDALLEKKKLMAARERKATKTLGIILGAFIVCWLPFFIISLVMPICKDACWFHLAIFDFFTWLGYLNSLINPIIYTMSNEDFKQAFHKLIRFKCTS
T8 sequence (P28221 whole entry): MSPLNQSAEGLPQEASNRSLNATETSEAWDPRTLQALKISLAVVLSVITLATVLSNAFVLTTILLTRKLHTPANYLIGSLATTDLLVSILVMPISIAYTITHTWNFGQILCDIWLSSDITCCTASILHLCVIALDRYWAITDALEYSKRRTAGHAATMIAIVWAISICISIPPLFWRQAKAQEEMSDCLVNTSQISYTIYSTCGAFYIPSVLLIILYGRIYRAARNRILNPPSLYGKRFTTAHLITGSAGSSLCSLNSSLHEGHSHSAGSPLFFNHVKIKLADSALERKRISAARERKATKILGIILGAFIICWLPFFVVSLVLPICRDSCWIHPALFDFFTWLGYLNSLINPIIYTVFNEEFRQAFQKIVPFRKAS

CCCCNc1ncc2c(-c3ccc(CN4CCN(C)CC4)cc3)cn([C@H]3CC[C@H](O)CC3)c2n1 [UNC2025C, UNC2025]
Inhibition 1 ([1]; Receptor Alpha1B, 10 μM): 15.21%
Inhibition 2 ([1]; Receptor Alpha1B, 10 μM): -0.72%
Inhibition 3 ([1]; Receptor Alpha1B, 10 μM): -5.53%
Inhibition 4 ([1]; Receptor Alpha1B, 10 μM): -1.63%
Mean % [1, 10]: 1.83%
Inhibition 1 ([2]; Receptor M4, 10 μM): 21.02%
Inhibition 2 ([2]; Receptor M4, 10 μM): 3.79%
Inhibition 3 ([2]; Receptor M4, 10 μM): -16.19%
Inhibition 4 ([2]; Receptor M4, 10 μM): 18.49%
Mean % [2, 11]: 6.78%
Inhibition 1 ([3]; Receptor 5-HT1B, 10 μM): 31.06%
Inhibition 2 ([3]; Receptor 5-HT1B, 10 μM): 11.01%
Inhibition 3 ([3]; Receptor 5-HT1B, 10 μM): 10.42%
Inhibition 4 ([3]; Receptor 5-HT1B, 10 μM): 12.97%
Mean % [3, 12]: 16.37%
Inhibition 1 ([4]; Receptor D1, 10 μM): 18.86%
Inhibition 2 ([4]; Receptor D1, 10 μM): -8.82%
Inhibition 3 ([4]; Receptor D1, 10 μM): 17.73%
Inhibition 4 ([4]; Receptor D1, 10 μM): 11.41%
Mean % [4, 13]: 9.8%
Inhibition 1 ([5]; Receptor D2, 10 μM): 11.9%
Inhibition 2 ([5]; Receptor D2, 10 μM): -4.63%
Inhibition 3 ([5]; Receptor D2, 10 μM): 2.76%
Inhibition 4 ([5]; Receptor D2, 10 μM): -1.81%
Mean % [5, 14]: 2.06%
Inhibition 4 ([6]; Receptor PBR, 10 μM): 12.81% and 23.25%
Inhibition 1 ([7]; Receptor 5-HT2C, 10 μM): 29.45%
Inhibition 2 ([7]; Receptor 5-HT2C, 10 μM): 46.13%
Inhibition 3 ([7]; Receptor 5-HT2C, 10 μM): 31.41%
Inhibition 4 ([7]; Receptor 5-HT2C, 10 μM): 26.99%
Mean % [7, 15]: 33.5%
Inhibition 1 ([8]; Receptor 5-HT1D, 10 μM): 51.95%
Inhibition 2 ([8]; Receptor 5-HT1D, 10 μM): 44.87%
Inhibition 3 ([8]; Receptor 5-HT1D, 10 μM): 26.55%
Inhibition 4 ([8]; Receptor 5-HT1D, 10 μM): 48.2%
Mean % [8, 16]: 42.89%
Inhibition 1 ([9]; Receptor 5-HT6, 10 μM): -20.29%
Inhibition 2 ([9]; Receptor 5-HT6, 10 μM): 0.2%
Inhibition 3 ([9]; Receptor 5-HT6, 10 μM): -8.54%
Inhibition 4 ([9]; Receptor 5-HT6, 10 μM): -2.02%
Mean % [9, 17]: -7.66%

O=C(NC1CC1)C(=O)C(Cc1ccccc1)NC(=O)[C@H]1CCC(=O)N1Cc1ccccc1 (some centres unmarked) [UNC10302676A, ABT-957 (Alicapistat)]
Mean % ([1]; Alpha1B, mean inhibition): -8.47%
Inhibition 1 ([1]; Alpha1B, replicate 1): -8.91%
Inhibition 2 ([1]; Alpha1B, replicate 2): -13.01%
Inhibition 3 ([1]; Alpha1B, replicate 3): -14.75%
Inhibition 4 ([1]; Alpha1B, replicate 4): 2.78%
Mean % ([2]; M4, mean inhibition): -0.92%
Inhibition 1 ([2]; M4, replicate 1): -9.99%
Inhibition 2 ([2]; M4, replicate 2): -2.41%
Inhibition 3 ([2]; M4, replicate 3): -11.37%
Inhibition 4 ([2]; M4, replicate 4): 20.1%
Mean % ([3]; 5-HT1B, mean inhibition): 8.92%
Inhibition 1 ([3]; 5-HT1B, replicate 1): 9.16%
Inhibition 2 ([3]; 5-HT1B, replicate 2): 10.49%
Inhibition 3 ([3]; 5-HT1B, replicate 3): 8.83%
Inhibition 4 ([3]; 5-HT1B, replicate 4): 7.18%
Mean % ([4]; D1, mean inhibition): 0%
Inhibition 1 ([4]; D1, replicate 1): 13.52%
Inhibition 2 ([4]; D1, replicate 2): -11.9%
Inhibition 3 ([4]; D1, replicate 3): -21.45%
Inhibition 4 ([4]; D1, replicate 4): 19.83%
Mean % ([5]; D2, mean inhibition): -21.21%
Inhibition 1 ([5]; D2, replicate 1): -14.25%
Inhibition 2 ([5]; D2, replicate 2): -31.51%
Inhibition 3 ([5]; D2, replicate 3): -11.38%
Inhibition 4 ([5]; D2, replicate 4): -27.71%
Inhibition 1 ([6]; PBR, replicate 1): 2.97% and 17.9%
Inhibition 2 ([6]; PBR, replicate 2): -4.68% and 2.11%
Inhibition 3 ([6]; PBR, replicate 3): 1.91% and 4.11%
Inhibition 4 ([6]; PBR, replicate 4): -8.81% and 7.78%
Mean % ([7]; 5-HT2C, mean inhibition): -3.07%
Inhibition 1 ([7]; 5-HT2C, replicate 1): 14.23%
Inhibition 2 ([7]; 5-HT2C, replicate 2): -14.23%
Inhibition 3 ([7]; 5-HT2C, replicate 3): -2.94%
Inhibition 4 ([7]; 5-HT2C, replicate 4): -9.33%
Mean % ([8]; 5-HT1D, mean inhibition): 14.89%
Inhibition 1 ([8]; 5-HT1D, replicate 1): 25.3%
Inhibition 2 ([8]; 5-HT1D, replicate 2): 16.14%
Inhibition 3 ([8]; 5-HT1D, replicate 3): 8.22%
Inhibition 4 ([8]; 5-HT1D, replicate 4): 9.89%
Mean % ([9]; 5-HT6, mean inhibition): -7.55%
Inhibition 1 ([9]; 5-HT6, replicate 1): 7.34%
Inhibition 2 ([9]; 5-HT6, replicate 2): -8.22%
Inhibition 3 ([9]; 5-HT6, replicate 3): -20.76%
Inhibition 4 ([9]; 5-HT6, replicate 4): -8.54%

O=c1oc2ccccc2cc1-c1cn2cc(Cc3ccc(F)cc3)sc2n1 [UNC10302680A, iMDK]
Inhibition 1 ([1]; Receptor Alpha1B, 10 μM): 2.49%
Inhibition 2 ([1]; Receptor Alpha1B, 10 μM): 0.66%
Inhibition 3 ([1]; Receptor Alpha1B, 10 μM): -2.09%
Inhibition 4 ([1]; Receptor Alpha1B, 10 μM): -5.18%
Mean % [1, 10]: -1.03%
Inhibition 1 ([2]; Receptor M4, 10 μM): 4.02%
Inhibition 2 ([2]; Receptor M4, 10 μM): 16.88%
Inhibition 3 ([2]; Receptor M4, 10 μM): 25.61%
Inhibition 4 ([2]; Receptor M4, 10 μM): 10.91%
Mean % [2, 11]: 14.36%
Inhibition 1 ([3]; Receptor 5-HT1B, 10 μM): 28.3%
Inhibition 2 ([3]; Receptor 5-HT1B, 10 μM): -13.17%
Inhibition 3 ([3]; Receptor 5-HT1B, 10 μM): 0.98%
Inhibition 4 ([3]; Receptor 5-HT1B, 10 μM): -13.17%
Mean % [3, 12]: 0.74%
Inhibition 1 ([4]; Receptor D1, 10 μM): 5.91%
Inhibition 2 ([4]; Receptor D1, 10 μM): 9.31%
Inhibition 3 ([4]; Receptor D1, 10 μM): -0.89%
Inhibition 4 ([4]; Receptor D1, 10 μM): -9.8%
Mean % [4, 13]: 1.13%
Inhibition 1 ([5]; Receptor D2, 10 μM): 11.41%
Inhibition 2 ([5]; Receptor D2, 10 μM): -7.84%
Inhibition 3 ([5]; Receptor D2, 10 μM): -2.59%
Inhibition 4 ([5]; Receptor D2, 10 μM): 7.52%
Mean % [5, 14]: 2.13%
Inhibition 1 ([7]; Receptor 5-HT2C, 10 μM): 16.2%
Inhibition 2 ([7]; Receptor 5-HT2C, 10 μM): -2.94%
Inhibition 3 ([7]; Receptor 5-HT2C, 10 μM): -21.1%
Inhibition 4 ([7]; Receptor 5-HT2C, 10 μM): -2.94%
Mean % [7, 15]: -2.7%
Inhibition 1 ([8]; Receptor 5-HT1D, 10 μM): -3.85%
Inhibition 2 ([8]; Receptor 5-HT1D, 10 μM): -18.84%
Inhibition 3 ([8]; Receptor 5-HT1D, 10 μM): 15.72%
Inhibition 4 ([8]; Receptor 5-HT1D, 10 μM): -8.43%
Mean % [8, 16]: -3.85%
Inhibition 1 ([9]; Receptor 5-HT6, 10 μM): -5.99%
Inhibition 2 ([9]; Receptor 5-HT6, 10 μM): -28.7%
Inhibition 3 ([9]; Receptor 5-HT6, 10 μM): -13.62%
Inhibition 4 ([9]; Receptor 5-HT6, 10 μM): -18.86%
Mean % [9, 17]: -16.79%
